Paper PMC11809919, “Quinoxaline-based anti-schistosomal compounds have potent anti-plasmodial activity” (PLOS Pathogens, 2025)
“And” between values parts separate entries of the source, which are not always exact repeats. Equal values may be shown once. Read-outs that look alike come from different tables or passages of the source.

Assays:
[1] = test system: P. falciparum PfQRP1 mutants (G1612V, D1863Y, D1829*, D1829A); assay: Dose-response assay on CRISPR-edited PfQRP1 mutant lines; assay type: cell-based, Plasmodium falciparum; details: for Susceptibility in CRISPR-edited G1612V and D1863Y PfQRP1 lines: versus silent-mutation and wildtype controls
Experimental: To generate the PfQRP1 hydrolase mutants (D1829stop and D1829A), the pDC2-Cas9-gRNA-donor plasmid was transfected into the P. falciparum Dd2 line. Donor plasmid (50 µg) containing the sgRNA ([…]) and a pfqrp1 homology region of 672 bp, centred on the D1829 residue, was used for transfection. Transfectants were selected using 5 nM WR99210 (a potent inhibitor of P. falciparum dihydrofolate reductase (DHFR) provided by Jacobus Pharmaceuticals) for 8 days, followed by culturing without drug until parasites were observed. Parasite clones were obtained using limiting dilution cloning. Confirmation of gene editing was performed with allele-specific PCR (forward primer […] and reverse primer […]) and Sanger sequencing using an internal primer ([…]).
(§1) Compound dose-response assays were performed in flat-bottom 96-well plates. Tightly synchronized ring-stage parasites were diluted to 1% parasitemia at 2% hematocrit, and incubated with a two-fold serial dilution of compounds in complete medium. Untreated parasites or uninfected RBCs were included in the assay plate as controls. Parasite growth was assessed after 72 h by lysing parasites using 2× lysis buffer consisting of 10 mM Tris-HCl, 5 mM EDTA, 0.1% w/v saponin, and 1% v/v Triton X-100, supplemented with 2× SYBR Green I (Molecular Probes). The fluorescence was measured using a FluorStar Omega v5.11 plate reader. IC50 analysis was performed using GraphPad Prism v9, and statistical significance was determined by a two-sided Mann-Whitney U test. All assays were performed in technical duplicate with at least three biological replicates, as noted in the figure legends.

β-hematin formation = assay: Detergent-based β-hematin inhibition assay; assay type: biochemical; details: cell-free, NP40 detergent, pH 4.8
Experimental: From this stock 40 μL of each was delivered to wells in the final column (column 12) of a 96-well plate together with distilled water (120 μL) and NP40 detergent (305.5 mM, 40 μL). […] A serial dilution of each compound (100 μL) from column 12 to column 2 was carried out. Column 1 served as a blank with 0 mM sample. A 25 mM hematin stock solution was prepared by sonicating hemin in DMSO for one minute and then suspending 179 μL of this in a 1 M acetate buffer (20 mL, pH 4.8). […] The plate was covered and incubated at 37°C for 5 h. […] Acetone (60 μL) was then added to assist with hematin dispersion. The UV-vis absorbance of the plate wells was read on a SpectraMax […] plate reader.

[2] = test system: 3D7 parasites (hemoglobin, 'free' heme, hemozoin); assay: Cellular heme fractionation assay; assay type: cell-based, Plasmodium falciparum; details: 3D7, 0.5 – 2.5× IC50, 30 h
Excerpt: Cellular heme fractionation to measure the amounts of different heme species was thereafter conducted as previously described. […] Pellets were then resuspended in 1× PBS (pH 7.5) and an aliquot of the trophozoite suspension used to quantify the total number of trophozoites isolated using flow cytometry. Contents of the remaining trophozoite pellet were then released by hypotonic lysis and sonication. […] The UV−visible spectrum of each heme fraction as an Fe(III)heme−pyridine complex was measured using a multi-well plate reader (Spectramax 340PC; Molecular Devices). The total amount of each heme species was quantified using a heme standard curve whereby the mass of each heme-Fe species per trophozoite (fg/cell) was calculated by dividing the total amount of each heme species by the corresponding number of parasites in that fraction as determined by flow cytometry. Statistical comparisons and analyses for trends were made on GraphPad Prism version 10 using Students’ t-test with Welch correction. The total amount of heme obtained from each fraction was quantified using a standard curve prepared from a 100 μg/mL heme standard solution of hematin (porcine) in 0.3 M NaOH. Serial dilutions of this standard were carried out in a 96-well plate with 100 μL 0.3 M NaOH as a blank. […] The visible spectra of heme as Fe(III)heme-pyridine complex were recorded in a multi-well plate reader. The amount of heme Fe per cell was calculated by dividing the total heme Fe in each fraction by the number of cells determined in each fraction.

P. falciparum 3D7 = assay: Compound dose-response assay (72 h, SYBR Green I), 3D7; assay type: cell-based, Plasmodium falciparum; details: for IC50: 72 h, asexual blood stage; for Selectivity index HepG2/3D7: HepG2 72 h CC50 / Pf 3D7 IC50
Experimental: (§2) P. falciparum parasites were cultured at 3% hematocrit in RPMI 1640 (Gibco) medium consisting of 0.5% Albumax II (Gibco), 25 mM HEPES (Sigma), 0.21% sodium bicarbonate, 1x GlutaMAX (Gibco), 25 μg/mL gentamicin (Gibco). A tri-gas mixture (1% O2, 3% CO2, and 96% N2) was used for parasite cultures. Parasites were synchronized using a sorbitol and Percoll density gradient method. The following parasite strains were used: 3D7, Dd2 (MR4, MRA-156, T. Wellems), GB4 (MR4, MRA-925, T. Wellems), UG659 (P. Rosenthal), Tanzania (MR4, MRA-1169, Michal Fried), Cam/PH0212C (R. Fairhurst), and Cam3.II/ PH0306-C (R. Fairhurst). Transfection was performed using ring-stage parasites (5–8% parasitemia) using a Gene Pulser Xcell (Biorad) electroporator.
as §1

P. falciparum Dd2 [3] = assay: Compound dose-response assay (72 h, SYBR Green I), Dd2; assay type: cell-based, Plasmodium falciparum; details: for IC50: 72 h, asexual blood stage; for Selectivity index HepG2/Dd2: HepG2 72 h CC50 / Pf Dd2 IC50
Experimental: as §2, §1

[4] = test system: P. falciparum strains Cam/PH0212C, Cam3.II/PH0306-C, UG659, GB4, Tanzania; assay: Dose-response assay against panel of geographically distinct strains; assay type: cell-based, Plasmodium falciparum; details: Cambodian isolates
Experimental: as §2, §1

[5] = test system: Dd2-Polδ clones C22-1.1 and C22-2.1; assay: Dose-response assay on compound 22-selected clones (cross-resistance); assay type: cell-based, Plasmodium falciparum
Experimental: Resistance selections were performed using a mutator parasite line Dd2-Polδ with an elevated mutation rate. Three independent flasks with either 1×10^8 or 1×10^9 parasites each were treated with 5×IC50, and parasite death was monitored by microscopy (Giemsa staining). […] After eight days, compounds were removed from the media and the media was changed on alternate days. […] For recrudescent cultures, compound susceptibility was determined by dose-response assays. Parasite clones were obtained by limiting dilution and harvested for genomic DNA extraction, followed by whole-genome sequencing.
as §1

[6] = test system: P. falciparum ring, trophozoite and schizont stages; assay: Stage specificity assay; assay type: cell-based, Plasmodium falciparum; details: for Stage-specificity: 10 h pulse at ring, trophozoite or schizont stage
Experimental: Stage-specific drug assays were performed following a protocol modified from Murithi et al.. In this assay, parasites were tightly synchronized to the ring stage with repeated 5% sorbitol treatments. On the assay day, schizonts were purified using a 63% Percoll gradient and allowed to […]. […] Parasites were then plated in 96-well plates and exposed to different drug concentrations at various stages: […] Drug treatment was removed through three rounds of washes. Plates were lysed 62 h after drug washout, and parasite growth was assessed similarly to the standard 72 h assay that used constant drug exposure.

P. falciparum Dd2 [7] = assay: Rate of killing (CFDA-SE labelled RBC reinvasion); assay type: cell-based, Plasmodium falciparum; details: Dd2, 10×IC50, 24 h or 48 h
Experimental: The rate of killing was evaluated as previously described in Linares et al.. […] After treatment, the compound was removed, and the culture was diluted (1/3) using fresh RBCs (2% haematocrit) pre-labelled with CFDA-SE (carboxylfluorescein diacetate succinimidyl ester, Life Technologies). Following a 48 h incubation under standard conditions, the ability of treated parasites to infect fresh labelled RBCs was measured using a Cytoflex flow cytometer by quantifying double-positive RBCs after labelling the parasites with MitoTracker Deep Red. Parasite viability was determined as the percentage of infected CFDA-SE-labelled RBCs in drug-treated samples at 24 and 48 h, compared to equivalent untreated controls. Standard compounds dihydroartemisinin, chloroquine, and atovaquone were used as benchmarks for comparing the killing rate of the test compounds.

S. mansoni schistosomula = test system: S. mansoni schistosomula; design: method as in Padalino et al. [13]; details: ref Padalino et al. [13], cited from earlier work
HepG2 cells = test system: HepG2 cells; design: method as in Padalino et al. [13]; details: ref Padalino et al. [13], cited from earlier work
[8] = read-out: βH Inhibition IC50, individual biological replicate
[9] = Plasmodium falciparum, 3D7, 72 h
[10] = Plasmodium falciparum, DD2, 72 h
[11] = 72 h, read-out: 72 h -phenotype EC50
[12] = average of phenotype and motility, read-out: Average EC50
[13] = HepG2, 24 h, read-out: 24 h CC50
[14] = HepG2, 72 h, read-out: 72 h CC50

Molecule	Effect of D1829 stop / D1829A PfQRP1 mutation on IC50 [1]	IC50 (β-hematin formation; [8])	Selectivity index HepG2/3D7 (P. falciparum 3D7)	IC50 (P. falciparum 3D7; [9])	Selectivity index HepG2/Dd2 (P. falciparum Dd2 [3])	IC50 (P. falciparum Dd2 [3]; [10])	Shift in IC50 in compound 22-selected clones versus parental Dd2-Polδ [5]	EC50 (S. mansoni schistosomula; [11])	EC50 (S. mansoni schistosomula; [12])	EC50 (S. mansoni schistosomula; read-out: Motility EC50)	CC50 (HepG2 cells; [13])	CC50 (HepG2 cells; [14])	also measured
2-N,3-N-bis[3-(trifluoromethyl)phenyl]quinoxaline-2,3-diamine [MMV665794]	less potent	257 µM and 217 µM	–	–	–	–	–	–	–	–	–	–	Levels of 'free' heme or hemozoin relative to untreated controls [2]: no significant changes
CCN(CC)CCCC(C)Nc1ccnc2cc(Cl)ccc12 (stereo not shown) [Chloroquine, chloroquine]	–	16.7 µM and 14.5 µM	–	–	–	–	–	–	–	–	–	–	IC50 (β-hematin formation; mean of two biological replicates, listed as chloroquine, read-out: βH Inhibition IC50, mean): 16 µM; IC50 (β-hematin formation; mean of two biological replicates, read-out: βH Inhibition IC50, mean): 15.6 µM; Levels of 'free' heme or hemozoin relative to untreated controls [2]: significant concentration-dependent increases
O=[N+]([O-])c1ccc2nc(Nc3ccc(Cl)c(Cl)c3)c(Nc3ccc(Cl)c(Cl)c3)nc2c1 [Compound 22]	elevated IC50	–	11.9	0.022 µM	8.0	0.032 µM	small but consistent shift in IC50	0.47 µM	0.44 µM	0.42 µM	7.4 µM	0.26 µM	IC50 (P. falciparum 3D7): 0.0219 µM; IC50 (P. falciparum Dd2 [3]): 0.0324 µM; Potency against panel of geographically distinct strains [4]: potencies similar to those recorded for the lab strain Dd2; Increase in IC50 in D1829A / D1829 stop PfQRP1 mutants [1]: 2–3 fold; Susceptibility in CRISPR-edited G1612V and D1863Y PfQRP1 lines [1]: reduced susceptibility; Drop in potency for a 10 h pulse compared with continuous exposure for 72 h [6]: 3–4 fold; Stage-specificity [6]: did not demonstrate a strong stage-specificity; Rate of parasite killing (P. falciparum Dd2 [7]): rapidly reduced parasitemia
O=[N+]([O-])c1ccc2nc(Nc3ccc(C(F)(F)F)cc3)c(Nc3ccc(C(F)(F)F)cc3)nc2c1 [Compound 31]	elevated IC50	–	8.2	0.0097 µM	5.7	0.014 µM	small but consistent shift in IC50	0.34 µM	0.31 µM	0.28 µM	8.8 µM	0.08 µM	Potency against panel of geographically distinct strains [4]: potencies similar to those recorded for the lab strain Dd2; Increase in IC50 in D1829A / D1829 stop PfQRP1 mutants [1]: 2–3 fold; Susceptibility in CRISPR-edited G1612V and D1863Y PfQRP1 lines [1]: reduced susceptibility; Drop in potency for a 10 h pulse compared with continuous exposure for 72 h [6]: 3–4 fold; Stage-specificity [6]: did not demonstrate a strong stage-specificity; Rate of parasite killing (P. falciparum Dd2 [7]): rapidly reduced parasitemia
O=[N+]([O-])c1ccc2nc(Nc3ccc(F)c(C(F)(F)F)c3)c(Nc3ccc(F)c(C(F)(F)F)c3)nc2c1 [Compound 32]	–	–	40.4	0.0166 µM	24.1	0.0278 µM	modest shift with one of the compound 22-resistant clones	0.89 µM	0.72 µM	0.54 µM	7.75 µM	0.67 µM	–
COc1ccc(Nc2nc3ccc([N+](=O)[O-])cc3nc2Nc2ccc(OC)c(C(F)(F)F)c2)cc1C(F)(F)F [Compound 35]	–	–	7.4	0.0578 µM	3.8	0.112 µM	modest shift with one of the compound 22-resistant clones	0.63 µM	0.66 µM	0.69 µM	5.64 µM	0.43 µM	–
C[C@H]1Cc2c([nH]c3cc(Cl)c(F)cc23)[C@@]2(N1)C(=O)Nc1ccc(Cl)cc12 [KAE609]	–	> 500 µM	–	–	–	–	–	–	–	–	–	–	–
